Experiments:
VEGF = assay: In vitro tendinopathy model, VEGF in tenocyte supernatant (MSD multiplex); assay type: cell-based, human; design: VEGF, % of negative control / increase of VEGF levels compared to negative control: concentration or dose not given beside the values
Description: (§1) In Vitro Tendinopathy Model: The below experiment was conducted on an in vitro tendinopathy model. Cells derived from human tendons (tenocytes) can serve as an in vitro model of tendons. See Miller et al., “MicroRNA29a regulates IL-33-mediated tissue remodelling in tendon disease.” Nat Commun 6, 6774 (2015). Cultured tenocytes can be used to investigate the effects of pro-inflammatory cytokines upon the most basic elements of tendon structure. See Ellis et al., “Defining the profile: Characterizing cytokines in tendon injury to improve clinical therapy.” Journal of Immunology and Regenerative Medicine 16, 100059 (2022). When a tendon is injured, it triggers a local inflammatory response that involves immune cell infiltration and the expression of pro-inflammatory mediators. This inflammatory environment can modify tenocyte physiology, causing them to become activated and pro-inflammatory. Exposing the tenocytes to the pro-inflammatory cytokines TNF-α and IL-1β can mimic the effects of tendon injury. See Smith et al., “Tumour necrosis factor alpha, interleukin 1 beta and interferon gamma have detrimental effects on equine tenocytes that cannot be rescued by IL-1RA or mesenchymal stromal cell-derived factors.” Cell Tissue Res 391, 523-544 (2023).
(§2) Cell Culture System. Immortalized, healthy, commercially-sourced human tenocyte cells (donor, patellar tendon) were reconstituted, seeded in T-75 flasks coated with bovine collagen I, and were maintained in Tenocyte Growth Medium supplemented with Tenocyte Growth Supplement, FBS, and penicillin/streptomycin. Culture conditions were maintained at 37° C. in a humidified 5% CO2 atmosphere. Cells were seeded at a density of 100,000 cells/well in commercially-sourced 24-well plates that were pre-coated with rat tail tendon collagen I.
(§3) Treatment Protocol. This study was designed to follow the time-course of collagen production after cytokine exposure to mimic the effects of tendon injury. The time variable was cytokine exposure time (6 hours, 1 day, 3 days, and 5 days). Each of these cytokine exposure time periods was followed by a 24-hour drug treatment period. Inflammatory conditions were induced using a combination of IL-1β (1 nM; 17 ng/ml) and TNF-α (10 ng/ml). Two therapeutic interventions were evaluated. The treatment designated as “treatment A” was colchicine (2 nM). The treatment designated as “treatment B” was colchicine (2 nM) plus pyridoxine (100 μM).
(§4) Experimental Groups. The treatment groups were as follows: (1) exposed to inflammatory cytokines plus treatment A; (2) exposed to inflammatory cytokines plus treatment B; (3) exposed to inflammatory cytokines (negative control, no drug). Further reference control groups were as follows: (A) treatment A without inflammatory cytokine exposure (drug-only control); (B) treatment B without inflammatory cytokine exposure (drug-only control); (C) healthy control (no inflammatory cytokines, no drug treatment).
(§5) Sample Collection Times. Samples were collected at the following timepoints after initiation of cytokine exposure: • 6-hour samples: Collection at 30 hours (6 hr cytokine exposure+24 hr drug treatment) • 1-day samples: Collection at 48 hours (24 hr cytokine exposure+24 hr drug treatment) • 3-day samples: Collection at 96 hours (72 hr cytokine exposure+24 hr drug treatment) • 5-day samples: Collection at 144 hours (120 hr cytokine exposure+24 hr drug treatment, cell culture medium replenished on day-3)
(§6) Assays Used. Collagen I (human) content was measured using enzyme-linked immunosorbent assay (ELISA) in cell culture supernatants. TGF-β1 in cell culture supernatants were measured using the MSD multiplex platform. Other inflammatory cytokines in cell culture supernatants were measured using the MSD multiplex platform.

TNF-α = assay: In vitro tendinopathy model, TNF-α in tenocyte supernatant (MSD multiplex); assay type: cell-based, human
Description: as §1, §2, §3, §4, §5, §6

IFN-γ = assay: In vitro tendinopathy model, IFN-γ in tenocyte supernatant (MSD multiplex); assay type: cell-based, human; design: IFN-γ, % of negative control / reduction of IFN-γ levels compared to negative control: concentration or dose not given beside the values
Description: as §1, §2, §3, §4, §5, §6

Collagen I (human) = assay: In vitro tendinopathy model, collagen I ELISA in tenocyte culture supernatant; assay type: cell-based
Description: as §1, §2, §3, §4
Sample Collection Times. […]
as §6

[1] = 6 hr cytokine exposure + 24 hr drug treatment
[2] = 1 day cytokine exposure + 24 hr drug treatment
[3] = 3 days cytokine exposure + 24 hr drug treatment
[4] = 5 days cytokine exposure + 24 hr drug treatment

With COc1cc2c(c(OC)c1OC)-c1ccc(OC)c(=O)cc1[C@@H](NC(C)=O)CC2 [Treatment A, colchicine] the “VEGF, % of negative control” value (VEGF; [1]) was 157.0%, the VEGF level (VEGF; 6 hr cytokine exposure + 24 hr drug treatment, negative control 333.6 pg/mL) was 523.8 pg/mL and the “VEGF, % of healthy level” value (VEGF; [2]) was 401.8%. For the same compound, the “VEGF, % of negative control” value (VEGF; [2]) was 133.4%, the VEGF level (VEGF; 1 day cytokine exposure + 24 hr drug treatment, negative control 599.5 pg/mL) was 799.7 pg/mL and the “VEGF, % of healthy level” value (VEGF; [3]) was 314.0%. The “VEGF, % of negative control” value (VEGF; [3]) was 112.6%, the VEGF level (VEGF; 3 days cytokine exposure + 24 hr drug treatment, negative control 555.0 pg/mL) was 624.9 pg/mL and the “VEGF, % of healthy level” value (VEGF; [4]) was 229.0%. For the same compound, the “VEGF, % of negative control” value (VEGF; [4]) was 117.9%, the VEGF level (VEGF; 5 days cytokine exposure + 24 hr drug treatment, negative control 386.6 pg/mL) was 455.8 pg/mL and the “increase of VEGF levels compared to negative control” value (VEGF; at 6 hours) was 57%. The VEGF level (VEGF; drug alone, without inflammatory cytokines, healthy control 199.0 pg/mL) was 621.7 pg/mL, the “TNF-α, % of healthy level” value (TNF-α; [1]) was 926.9% and the “TNF-α, % of negative control” value (TNF-α; [1]) was 116.7%. The TNF-α level (TNF-α; 6 hr cytokine exposure + 24 hr drug treatment, negative control 1678.4 pg/mL) was 1958.4 pg/mL, the “TNF-α, % of healthy level” value (TNF-α; [2]) was 806.3% and the “TNF-α, % of negative control” value (TNF-α; [2]) was 129.3%. The TNF-α level (TNF-α; 1 day cytokine exposure + 24 hr drug treatment, negative control 1317.2 pg/mL) was 1703.5 pg/mL, the “TNF-α, % of healthy level” value (TNF-α; [3]) was 617.0% and the “TNF-α, % of negative control” value (TNF-α; [3]) was 135.8%. For the same compound, the TNF-α level (TNF-α; 3 days cytokine exposure + 24 hr drug treatment, negative control 960.1 pg/mL) was 1303.6 pg/mL, the “TNF-α, % of healthy level” value (TNF-α; [4]) was 424.1% and the “TNF-α, % of negative control” value (TNF-α; [4]) was 108.7%. For the same compound, the TNF-α level (TNF-α; 5 days cytokine exposure + 24 hr drug treatment, negative control 824.1 pg/mL) was 895.9 pg/mL, the TNF-α level (TNF-α; drug alone, without inflammatory cytokines, healthy control 211.3 pg/mL) was 1.1 pg/mL and the “reduction of IFN-γ levels compared to negative control” value (IFN-γ; 6-hour timepoint) was 28.4%. The “IFN-γ, % of healthy level” value (IFN-γ; [1]) was 154.5%, the “IFN-γ, % of negative control” value (IFN-γ; [1]) was 71.6% and the IFN-γ level (IFN-γ; 6 hr cytokine exposure + 24 hr drug treatment, negative control 17.6 pg/ml) was 12.6 pg/mL. The “IFN-γ, % of healthy level” value (IFN-γ; [2]) was 186.9%, the “IFN-γ, % of negative control” value (IFN-γ; [2]) was 98.0% and the IFN-γ level (IFN-γ; 1 day cytokine exposure + 24 hr drug treatment, negative control 15.6 pg/ml) was 15.3 pg/mL. For the same compound, the “IFN-γ, % of healthy level” value (IFN-γ; [3]) was 112.1%, the “IFN-γ, % of negative control” value (IFN-γ; [3]) was 72.4% and the IFN-γ level (IFN-γ; 3 days cytokine exposure + 24 hr drug treatment, negative control 12.7 pg/mL) was 9.2 pg/mL. For the same compound, the “IFN-γ, % of healthy level” value (IFN-γ; [4]) was 160.7%, the “IFN-γ, % of negative control” value (IFN-γ; [4]) was 80.7% and the IFN-γ level (IFN-γ; 5 days cytokine exposure + 24 hr drug treatment, negative control 16.3 pg/mL) was 13.1 pg/mL. The IFN-γ level (IFN-γ; drug alone, without inflammatory cytokines, healthy control 8.2 pg/mL) was 3.1 pg/mL, the “collagen I level” value (Collagen I (human); 6 hr IL-1β + TNF-α exposure + 24 hr drug treatment, negative control 24 ng/mL) was 20 ng/mL and the “collagen I level” value (Collagen I (human); 1 day IL-1β + TNF-α exposure + 24 hr drug treatment, negative control 20 ng/ml) was 19 ng/mL. The “collagen I level” value (Collagen I (human); 3 days IL-1β + TNF-α exposure + 24 hr drug treatment, negative control 23 ng/ml) was 21 ng/mL, the “collagen I level” value (Collagen I (human); 5 days IL-1β + TNF-α exposure + 24 hr drug treatment, negative control 28 ng/ml) was 28 ng/mL and the “collagen I level” value (Collagen I (human); drug alone, without inflammatory cytokines, healthy control 30 ng/ml) was 17 ng/mL.

— patent US20250144051A1, “Colchicine for Treating Connective Tissue Disorders” (Khan Sciences, Inc., priority 2023, published 2025)
